Assay results as given in US5614555A, “Amidinophenol derivatives” (Ono Pharmaceutical Co., Ltd., priority 1992, dated 1997).
Counter-ions that a name gives are not always drawn.

Columns and labels:
[1] = biological target: T1, PLA2 (derived from hog pancreas) (Sus scrofa, UniProt P00592); assay: Inhibitory activity on PLA2; type: biochemical; conditions: pH7.5, 10PY-PC substrate, fluorescence Ex=345 nm, Em=396 nm
T1 construct: from tissue; host or cells: hog pancreas
Procedure: A reaction solution including 50 mM tris-HCl buffer (pH7.5, 874 μl; containing 100 mM sodium chloride, 1 mM EDTA), 1M calcium chloride (6 μl), 1% bovine serum albumin (10 μl) and 2.5 mM 10PY-PC (10 μl), was prepared. To the solution were added a test compound in various concentration or water (50 μl), and a solution of 10 mU/ml PLA2 (derived from hog pancreas)(50 μl). The appearance of fluorescence was measured (Ex=345 nm, Em=396 nm). Percentage (%) of the strength of fluorescence in the presence of a test compound was calculated when the strength of that in the absence thereof was regarded as 100%, and therefrom IC50 value was calculated.
10PY-PC represents 3'-palmitoyl-2-(1 -pyrenedecanoyl)-L-α-phosphatidycholine, […]

[2] = biological target: T2, trypsin (derived from bovine pancreas) (Bos taurus, UniProt P00760); assay: Inhibitory activity on trypsin; type: biochemical; conditions: pH8.0, preincubated one minute at 30° C., BAPNA substrate, 30 min, absorbance at 405 nm
T2 construct: from tissue; host or cells: bovine pancreas
T2 sequence (P00760 24-246): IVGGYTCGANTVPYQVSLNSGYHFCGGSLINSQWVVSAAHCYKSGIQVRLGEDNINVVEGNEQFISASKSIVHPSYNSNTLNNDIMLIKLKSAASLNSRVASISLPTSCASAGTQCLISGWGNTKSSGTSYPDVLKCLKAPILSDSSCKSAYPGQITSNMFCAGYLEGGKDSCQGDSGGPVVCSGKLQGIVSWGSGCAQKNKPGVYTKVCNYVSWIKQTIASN
Procedure: To a mixture of a 0.2M HEPES.sodium hydroxide buffer solution (pH8.0, 100 μl ) and distilled water (640 μl), were added a test compound in various concentration or water (10 μl), and a solution of 80 mU/ml trypsin (derived from bovine pancreas) (50 μl) and then the mixture was preincubated for one minute at 30° C. To the solution thus obtained was added 2.5 mM BAPNA (200 μl) and the mixture was incubated for 30 min. The absorbance at 405 nm was measured. Percentage (%) of the absorbance in the presence of a test compound was calculated when the absorbance in the absence thereof was regarded as 100%, and therefrom IC50 value was calculated.
HEPES represents 4-(2-hydroxyethyl)-1-piperazineethanesulfonic acid, and
BAPNA represents a-N-benzoyl-DL-arginine-p-nitroanilide hydrochloride.

PLA2 = conditions: Japan. J. Pharmacol., 52, 23-34, 1990; cited from earlier work

T1 sequence (P00592 23-146): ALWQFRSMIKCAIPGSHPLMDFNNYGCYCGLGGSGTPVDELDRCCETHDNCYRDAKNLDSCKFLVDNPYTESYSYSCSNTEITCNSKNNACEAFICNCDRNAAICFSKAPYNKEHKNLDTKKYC

**Q.** For `CCOC(=O)CC[C@H](NC(=O)/C(C)=C/c1ccc(C(=O)Oc2ccc(C(=N)N)cc2)cc1)C(=O)OCC` [1(d), p-(p-amidino-phenoxycarbonyl)-α-methylcinnamicacid N-[1-(S),3-bis-(ethoxycarbonyl)]-propylamidehydrochloride], which IC50 [1] is on record?
**A.** 63000 nM

**Q.** And the IC50 [2]?
**A.** 130 nM

**Q.** For `CCOC(=O)CN(C(=O)/C(C)=C/c1ccc(C(=O)Oc2ccc(C(=N)N)cc2)cc1)c1ccc(F)cc1` [1(g), p-(p-amidino-phenoxycarbonyl)-α-methylcinnamicacid N-(p-fluoro-phenyl)-N-ethoxy-carbonylmethyl-amidemethanesulfonate], which IC50 [1] is on record?
**A.** 5300 nM

**Q.** And the IC50 [2]?
**A.** 140 nM

**Q.** What does the source list for `C=CCN(CC(=O)OCC)C(=O)/C(C)=C/c1ccc(C(=O)Oc2ccc(C(=N)N)cc2)cc1` [1(i), p-(p-amidino-phenoxycarbonyl)-α-methylcinnamicacid N-allyl-N-ethoxycarbonylmethylamideacetate]?
**A.** IC50 [1]: 28000 nM; IC50 [2]: 130 nM

**Q.** Which IC50 [1] does the source give for `CCOC(=O)CN(C(=O)/C=C(\C)c1ccc(C(=O)Oc2ccc(C(=N)N)cc2)cc1)c1ccccc1` [1(k), p-(p-amidino-phenoxycarbonyl)-β-methylcinnamicacid N-phenyl-N-ethoxycarbonyl-methylamidehydrochloride] here?
**A.** 3100 nM

**Q.** And the IC50 [2]?
**A.** 220 nM

**Q.** With `CCOC(=O)CN(C(=O)c1ccc(C(=O)Oc2ccc(C(=N)N)cc2C(=O)OC)cc1)c1ccccc1` [1(p), p-(p-amidino-o-methoxycarbonyl-phenoxycarbonyl)-benzoic acid N-phenyl-N-ethoxy-carbonylmethyl-amide acetate] as the compound, how does the IC50 [2] read?
**A.** 150 nM

**Q.** Which results are given for `N=C(N)c1ccc(OC(=O)c2ccc(C(=O)N3CCN(Cc4ccccc4)CC3)cc2)cc1` [1(t), p-(p-amidino-phenoxycarbonyl)-benzoic acid N'-phenylmethyl-piperazinylamidedihydrochloride]?
**A.** IC50 [1]: 24000 nM; IC50 [2]: 220 nM

**Q.** For `N=C(N)c1ccc(OC(=O)c2ccc(C(=O)N3CCC[C@@H]3C(=O)OCc3ccccc3)cc2)cc1` [2(f), p-(p-amidinophenoxycarbonyl)benzoic acid-N-(2-(R)-benzyloxycarbonyl)pyrrolidinylamideacetic acid], which IC50 [1] is on record?
**A.** 32000 nM

**Q.** And the IC50 [2]?
**A.** 140 nM

**Q.** With `CCOC(=O)CN(Cc1ccccc1)C(=O)/C(C)=C/c1ccc(C(=O)Oc2ccc(C(=N)N)cc2)cc1` [Example 1, p-(p-Amidinophenoxycarbonyl)-α-methylcinnamic acid N-ethoxycarbonylmethyl-N-phenylmethylamide hydrochloride] as the compound, how does the IC50 [1] read?
**A.** 4800 nM

**Q.** And the IC50 [2]?
**A.** 140 nM

**Q.** What does the source list for `CCOC(=O)CN(C(=O)/C=C/c1ccc(C(=O)Oc2ccc(C(=N)N)cc2)cc1)c1ccccc1` [Example 2(a), p-(p-amidinophenoxycarbonyl)cinnamic acid-N-phenyl-N-ethoxycarbonylmethyl amidehydrochloride]?
**A.** IC50 [1]: 15000 nM; IC50 [2]: 140 nM

**Q.** With `C=CCN(CC(=O)O)C(=O)/C(C)=C/c1ccc(C(=O)Oc2ccc(C(=N)N)cc2)cc1` [Example 4, p-(p-Amidinophenoxycarbonyl)-α-methylcinnamic acid N-carboxymethyl-N-allylamide methanesulfonate] as the compound, how does the IC50 [2] read?
**A.** 100 nM

**Q.** For `CN(C)C(=O)COC(=O)Cc1ccc(OC(=O)c2ccc(NC(=N)N)cc2)cc1` [camostat mesylate], which “inhibitory activity on PLA2 (in words)” value (PLA2) is on record?
**A.** having an inhibitory activity on PLA2

**Q.** Which “inhibitory activity on PLA2 (in words)” value (PLA2) does the source give for `N=C(N)Nc1ccc(C(=O)Oc2ccc3cc(C(=N)N)ccc3c2)cc1` [nafamostat mesilate] here?
**A.** having an inhibitory activity on PLA2
